Test results as given in US10253039B2, “Inhibitors of bacterial DNA gyrase with efficacy against gram-negative bacteria” (priority 2014, dated 2019).
Values after ≈ are worked out from the molar mass of the structure shown.

How the values were obtained:
[1] = tested on: E. coli BW25113 ΔtolC cipR isolate GyrA Ser83Leu; assay: MIC against ciprofloxacin-resistant mutant; details: cipR isolate GyrA Ser83Leu
Protocol: (§1) A microdilution method in 96-well plates was used and the MIC protocol established by the Clinical Laboratory Standards Institute was followed. From a growing subculture, a 1:10000 inoculum of each strain in Luria-Bertani media was prepared and aliquoted 100 μL in 4 columns of wells, except for the top row wells, which contained 200 μL of inoculum. […] The liquid in each of wells was mixed with a multi-channel pipet and 100 μL was transferred to the next well and mixed. The 2-fold dilution was continued down the 96-well plate until 100 μL was left, which was discarded. The plates were incubated at 37° C. with shaking for 16-18 hours. The MIC was determined as the lowest concentration that inhibited growth and had no turbidity by visual inspection.

[2] = tested on: E. coli BW25113 ΔtolC cipR isolate GyrA Asp87Gly; assay: MIC against ciprofloxacin-resistant mutant; details: cipR isolate GyrA Asp87Gly
Protocol: as §1

E. coli BW25113 ΔtolC = assay: MIC, microdilution in 96-well plates; details: E. coli BW25113 ΔtolC (parent strain); Table 5
[3] = tested on: ciprofloxacin resistant strains of E. coli; assay: MIC against ciprofloxacin resistant strains compared to parent strain; details: ratio to MIC of parent strain E. coli BW25113 ΔtolC
Protocol: as §1

[4] = tested on: E. coli BW25113 ΔtolC cipR isolate GyrA Asp87Tyr; assay: MIC against ciprofloxacin-resistant mutant; details: cipR isolate GyrA Asp87Tyr
Protocol: as §1

[5] = tested on: E. coli BW25113 ΔtolC cipR isolate GyrB Ser464Phe; assay: MIC against ciprofloxacin-resistant mutant; details: cipR isolate GyrB Ser464Phe
Protocol: as §1

**Q.** Which results are given for `Cc1ccc(F)cc1S(=O)(=O)NC1CCN(Cc2ccc(-c3ccccc3)cc2)C1` (stereo not drawn) [Gyramide C]?
**A.** MIC [1]: 2.5 µM (≈ 1.06 µg/mL); MIC [2]: 5 µM (≈ 2.12 µg/mL); MIC (E. coli BW25113 ΔtolC): 2.5 µM (≈ 1.06 µg/mL); MIC against ciprofloxacin resistant strains compared to the parent strain [3]: 1-4 times; MIC [4]: 5 µM (≈ 2.12 µg/mL); MIC [5]: 10 µM (≈ 4.25 µg/mL)
